Experimental data from ChEMBL document CHEMBL5352385, “Marine natural products and their synthetic analogs as promising antibiofilm agents for antibiotics discovery and development” (Eur J Med Chem, 2022).
Blank lines part the entries; values can stand above or below the compound they belong to.

How the values were obtained:
[1] = system: Streptococcus mutans; assay: Antibiofilm activity against Streptococcus mutans UA159 assessed as inhibition of biofilm formation; assay type: functional, organism-based
[2] = system: Micrococcus luteus; assay: Antibiofilm activity against Micrococcus luteus at 31.25 ug/ml incubated for 48 hrs by crystal violet staining based analysis relative to control; assay type: functional; settings: dose 31.25 µg/ml
[3] = system: Pseudooceanicola batsensis; assay: Antibiofilm activity against Pseudooceanicola-batsensis at 31.25 ug/ml incubated for 48 hrs by crystal violet staining based analysis relative to control; assay type: functional; settings: dose 31.25 µg/ml
[4] = system: Staphylococcus aureus; assay: Antibiofilm activity against Staphylococcus aureus ATCC 6538 assessed as reduction in biofilm formation at 50 ug/ml measured after 24 hrs by crystal violet staining based analysis relative to control; assay type: functional; design: scale not given: the % may be the effect or the level left; settings: dose 50 µg/ml
[5] = system: Staphylococcus aureus; assay: Antibiofilm activity against methicillin-resistant Staphylococcus aureus CH 10850 at 50 ug/ml relative to control; assay type: functional; settings: dose 50 µg/ml
[6] = system: Streptococcus mutans; assay: Antibiofilm activity against clinical isolate Streptococcus mutans 2.M7/4 assessed as inhibition of biofilm formation at 31.0 ug/ml relative to control; assay type: functional; design: scale not given: the % may be the effect or the level left; settings: dose 31 µg/ml
[7] = system: Streptococcus mutans; assay: Antibiofilm activity against Streptococcus mutans UA159 assessed as inhibition of biofilm formation at 31.0 ug/ml relative to control; assay type: functional; design: scale not given: the % may be the effect or the level left; settings: dose 31 µg/ml
[8] = system: Marinobacter nauticus; assay: Antibiofilm activity against Marinobacter hydrocarbonoclasticus at 31.25 ug/ml incubated for 24 hrs by crystal violet staining based analysis relative to control; assay type: functional; settings: dose 31.25 µg/ml
[9] = system: Staphylococcus aureus; assay: Antibiofilm activity against Staphylococcus aureus ATCC 6538 at 6.25 ug/ml relative to control; assay type: functional; settings: dose 6.25 µg/ml
[10] = system: Candida albicans; assay: Antibiofilm activity against Candida albicans assessed as reduction in biofilm formation at 200 ug/ml measured after 48 hrs by crystal violet staining based analysis relative to control; assay type: functional; design: scale not given: the % may be the effect or the level left; settings: dose 200 µg/ml
[11] = system: Staphylococcus aureus; assay: Antibiofilm activity against Staphylococcus aureus ATCC 6538 at 100 ug/ml incubated for 24 hrs by crystal violet staining based microplate reader method relative to control; assay type: functional; settings: dose 100 µg/ml
[12] = system: Staphylococcus aureus; assay: Antibiofilm activity against Staphylococcus aureus ATCC 6538 after 24 hrs by crystal violet staining based assay; assay type: functional, organism-based; settings: ATCC 6538, 24 h
[13] = system: Staphylococcus aureus; assay: Antibiofilm activity against Staphylococcus aureus ATCC 25923 after 24 hrs by crystal violet staining based assay; assay type: functional, organism-based; settings: ATCC 25923, 24 h
[14] = system: Staphylococcus aureus; assay: Antibiofilm activity against methicillin-resistant Staphylococcus aureus CH 10850 at 32 ug/ml relative to control; assay type: functional; settings: dose 32 µg/ml
[15] = Inhibition of quorum sensing system in Pseudomonas aeruginosa PA01 transfected with lasB-gfp
[16] = Inhibition of quorum sensing system in Pseudomonas aeruginosa PA01 transfected with […]
[17] = system: Staphylococcus aureus; assay: Antibiofilm activity against methicillin-resistant Staphylococcus aureus CH 10850 at 100 ug/ml relative to control; assay type: functional; settings: dose 100 µg/ml
[18] = system: Staphylococcus aureus; assay: Antibiofilm activity against methicillin-resistant Staphylococcus aureus ATCC 6538 at 100 ug/ml incubated for 24 hrs by crystal violet staining based microplate reader method relative to control; assay type: functional; settings: dose 100 µg/ml
[19] = system: Pseudomonas aeruginosa; assay: Antibiofilm activity against Pseudomonas aeruginosa ATCC 15442 after 24 hrs by crystal violet staining based assay; assay type: functional, organism-based; settings: ATCC 15442, 24 h
[20] = system: Staphylococcus epidermidis; assay: Antibiofilm activity against Staphylococcus epidermidis RP62A; assay type: functional
[21] = system: Pseudomonas aeruginosa; assay: Antibiofilm activity against Pseudomonas aeruginosa assessed as inhibition of biofilm formation at 100 ug/ml incubated for 24 hrs by crystal violet staining based analysis relative to control; assay type: functional; design: scale not given: the % may be the effect or the level left; settings: dose 100 µg/ml

IC50 [1]: 2600 nM
Compound: COc1ccc(CNC2=CC3=NCCc4cn(S(=O)(=O)c5ccc(C)cc5)c(c43)C2=O)cc1OC

Compound: CC(C)=CCC/C(C)=C\C[C@@]12OC(C)(C)[C@H](Cl)C[C@]1(Cl)C(=O)c1c(O)cc(O)cc1C2=O
Activity [2]: 88.6%
Activity [3]: 87.2%

Compound: COc1cc(-c2ccccn2)nc2cnsc12
Activity [4]: >50%

Compound: CC(=O)O[C@@H]1O[C@H](OC(C)=O)[C@H]2C(=O)[C@@H]([C@@]3(C)CCCC(C)(C)C3)CC[C@@H]12
Activity [5]: 97.7%

Compound: CCCCCCCCC[C@H](CC(=O)NCCCCN)N1CC(=O)N[C@@H](Cc2ccccc2)C1=O
Activity [6]: 34.8%
Activity [7]: 90%

Compound: Cc1c(O)cc2c(c1O)C(=O)[C@@]1(Cl)C[C@@H](Cl)C(C)(C)O[C@@]1(CC1C(C)(C)C(Cl)CC[C@@]1(C)O)C2=O (stereo partly specified)
Activity [8]: 25.1%

Compound: COc1cc(-c2ccccn2)nc(C#N)c1SC
Activity [4]: >50%

Compound: COC(=O)[C@@]12Oc3ccc(-c4ccc5c(c4O)C(=O)C4=C(O)C[C@H](C)[C@H](O)[C@]4(C(=O)OC)O5)c(O)c3C(=O)C1=C(O)C[C@H](C)[C@@H]2O [SECALONIC ACID B]
Activity [9]: >90%

Compound: C/C=C/CCCC(C)/C(O)=C1\C(=O)[C@@H](C(C)O)N(C)C1=O (stereo partly specified)
Activity [10]: 80%

Compound: CC(C)=CCC/C(C)=C/[C@@H]1CC(C)=C[C@]2(C=C(CO)[C@H]3CC(=O)C(C)=C[C@H]3O2)O1
Activity [11]: >75%

IC50 [12]: 11.3 µM
IC50 [13]: 8400 nM
Compound: CC(C)(C)OC(=O)NCCn1cc(-c2nc(-c3c[nH]c4ncccc34)cs2)c2ccccc21

Compound: NCC(c1c[nH]c2cc(Br)ccc12)c1c[nH]c2cc(Br)ccc12
Activity [14]: 56.3%

Compound: C=C1CCC(Cl)C(C)(C)C1C[C@@]12OC(C)(C)[C@H](Cl)C[C@]1(Cl)C(=O)c1c(cc(O)c(C)c1O)C2=O (stereo partly specified)
Activity [8]: 48.2%

IC50 [1]: 2000 nM
Compound: COc1ccc(CCNC2=CC3=NCCc4cn(S(=O)(=O)c5ccc(C)cc5)c(c43)C2=O)cc1

IC50 [15]: 30.7 µM
IC50 [16]: 2640 nM
Compound: O=C(NCCSSCCNC(=O)/C(Cc1ccc(O)c(Br)c1)=N/O)/C(Cc1ccc(O)c(Br)c1)=N/O [PSAMMAPLIN A]

Compound: C=C1CCC(Cl)C(C)(C)C1C[C@@]12OC(C)(C)[C@H](Cl)C=C1C(=O)c1c(cc(O)c(C)c1O)C2=O (stereo partly specified)
Activity [8]: 33.7%

Compound: CCC1=C(C=O)[C@H](C(=O)OC)CC[C@@H]1[C@@]1(C)CCCC(C)(C)C1
Activity [17]: 90.7%

Compound: CC(=O)OC1OC2OC(=O)[C@H](C)C34OOC([C@@]5(C)CCCC(C)(C)C5)(CC[C@@H]1C23)O4 (stereo partly specified)
Activity [17]: 99%

Compound: CC(=O)O[C@@H]1C[C@@H]2C(CO)=C[C@]3(C=C(C)C[C@@H](/C=C(\C)CCC=C(C)C)O3)O[C@@H]2C=C1C
Activity [18]: 50%

IC50 [12]: 51.6 µM
IC50 [13]: 400 nM
Compound: COCCn1cc(-c2nc(-c3cn(C)c4ncccc34)cs2)c2cc(F)ccc21

Compound: CC(C)=CCC/C(C)=C/[C@@H]1CC(C)=C[C@]2(C=C(CO)[C@H]3C[C@H](O)C(C)=C[C@H]3O2)O1
Activity [11]: >95%

IC50 [12]: 23.9 µM
IC50 [13]: 2030 nM
IC50 [19]: 9.7 µM
Compound: COCCn1cc(-c2nc(-c3cn(C)c4ncccc34)cs2)c2cc(Br)ccc21

Compound: COc1cc(-c2ccccn2)nc(/C=N/O)c1[S+](C)[O-] (stereo unspecified)
Activity [4]: >80%

Compound: CCCCCC1OC1C(O)CCCCCCCCCC(=O)O (stereo unspecified)
MBIC [20]: 32 µg/mL

Compound: CCC(C)C(=O)NCCc1ccccc1 (stereo unspecified)
Activity [21]: 50.6%

Compound: COC(=O)[C@H](C)c1c([C@@]2(C)CCCC(C)(C)C2)ccc2c1C(=O)OC2
Activity [5]: 99.9%

Compound: C=C(C)C(=O)CC/C(C)=C\C[C@@]12OC(C)(C)[C@H](Cl)C=C1C(=O)c1c(O)cc(O)cc1C2=O
Activity [8]: 43.4%
Activity [2]: 87.3%

Compound: C/C(=C/C[C@@]12OC(C)(C)[C@H](Cl)C[C@]1(Cl)C(=O)c1c(O)cc(O)cc1C2=O)CC/C=C(\C)CO
Activity [8]: 60.2%
